Source: paper PMC10560666, “Four new triterpene saponins from Cephalaria speciosa and their potent cytotoxic and immunomodulatory activities” (Scientific Reports, 2023)
Marks after values point to notes of the source that are not given here.

Assays:
[1] = tested on: HeLa human cervical gland carcinoma cells; assay: MTT cytotoxicity on HeLa; assay type: cell-based; details: Homo sapiens, HeLa, 48 h, mean ± standard deviation, n = 3, – = Not detected
Procedure: (§1) The human leukemia monocyte cell line (THP-1), human lung adenocarcinoma cell line (A549), human breast cancer cells (MDA-MB231), human prostate adenocarcinoma cells (PC3), human malignant glioma cell line (U87MG), human cervical gland carcinoma cells (HeLa), human hepatocellular carcinoma cells (HEP-G2) and normal human lung fibroblast cells (CCD-34-LU) as a healthy cell line in our stock used in this study were purchased from American Type Culture Collection (ATCC). THP-1 cells were cultured in Roswell Park Memorial Institute (RPMI 1640) medium and MDA-MB231, PC3, U87 MG, HeLa, HEP-G2, and CCD-34-LU cells cultivated in Dulbecco’s Modified Eagle’s Medium/Nutrient Mixture F-12 (DMEM/F12) (Gibco, USA) medium supplemented with 10% FBS (Gibco, USA), 100U/mL of penicillin 100 µg/mL of streptomycin (Gibco, USA), and 2 mM L-glutamine (Gibco, USA).
(§2) Cytotoxicity of saponins (1–4) and their prosapogenins (2a–4a) were tested against A549, MDA-MB-231, PC-3, U87MG, HeLa, HepG-2 cancer cells and CCD34-Lu healthy cell line using MTT [3-(4,5-dimethylthiazole-2-yl)-2,5-diphenyltetrazolium bromide)] assay (Acros Organics, New Jersey, USA)[11], [23]. For this purpose, 1 × 10^5 cells/mL of all the cell lines were seeded in 96-well plates (Corning, USA) and cultivated in the at 37 °C overnight. After the incubation, the cells were incubated with different concentrations of saponins (50, 5, and 0.5 µg/mL), and doxorubicin (Sigma, USA) (20, 2, and 0.2 µg/mL) for 48 h at 37 °C. Then, the MTT was added as 20 μL (from the stock concentration of 2.5 mg/mL) to all wells and further incubated for 4 h at 37 °C. Following the incubation, the medium was removed and 150 µL DMSO was added to dissolve the formed formazan crystals. After the formazan crystals were completely dissolved, the optical density (OD) was measured at 570 nm with an UV/Vis microplate spectrophotometer (Thermo Fisher Scientific, USA). All data are the results of at least three independent experiments carried out in triplicate. Data are presented as mean ± standard error of the mean (SEM) of samples. The IC50 value was calculated using the GraphPad Prism 8 (USA) program based on the calculated percent viability values and absorbance values. The percentage of viability was determined by Eq. (1):1 %Viablecells=absorbanceoftreatedcells-absorbanceofblank/absorbanceofcontrol-absorbanceofblank×100

[2] = tested on: THP-1 originated-macrophage; assay: MTT cytotoxicity on THP-1 originated macrophages; assay type: cell-based, human; details: mean ± standard deviation, n = 3, – = Not detected; for IC50: Homo sapiens, THP-1, 48 h
[3] = tested on: A549 human lung adenocarcinoma cell line; assay: MTT cytotoxicity on A549; assay type: cell-based; details: Homo sapiens, A549, 48 h, mean ± standard deviation, n = 3, – = Not detected
Procedure: as §1, §2

[4] = tested on: U87MG human malignant glioma cell line; assay: MTT cytotoxicity on U87MG; assay type: cell-based; details: Homo sapiens, U-87 MG, 48 h, mean ± standard deviation, n = 3, – = Not detected
Procedure: as §1, §2

[5] = tested on: PC-3 human prostate adenocarcinoma cells; assay: MTT cytotoxicity on PC-3; assay type: cell-based; details: Homo sapiens, 48 h, mean ± standard deviation, n = 3, – = Not detected
Procedure: as §1, §2

[6] = tested on: CCD-34Lu normal human lung fibroblast cells; assay: MTT cytotoxicity on CCD-34Lu healthy cells; assay type: cell-based; details: Homo sapiens, Fibroblast, 48 h, mean ± standard deviation, n = 3, – = Not detected
Procedure: as §1, §2

[7] = tested on: THP-1 derived macrophage cells; assay: Macrophage polarization by flow cytometry (CD11b, CD80, CD163 MFI); assay type: cell-based, human; details: saponin 3 µg/mL, 24 h, PMA-differentiated THP-1, mean ± SD, n = 3
Procedure: To differentiate THP-1 cells into M0-THP-1, cells were seeded at an initial concentration of 1 × 10^6 cells/mL in 6-well plates (Corning, USA) and treated with 15 ng/mL phorbol 12-myristate 13—acetate (PMA, Sigma USA). Then incubate at 5% CO2, 37 °C for 48 h[24]. To evaluate the potential of saponins with/without infectious bronchitis virus (IBV) D274 antigen on macrophage polarization, THP-1 cells were treated with saponins at 3 µg/mL and then incubated for 24 h with or without 4 µL of inactivated IBV D274 antigens (final titer of 1 HA). […] Based on the results of our previous research, the saponin concentration was selected as a non-cytotoxic concentration. At the end of the incubation period, the cells were collected by trypsinization and washed three times with PBS. Following, 1 µL of PE anti-human CD80 (Biolegend, CA), FITC anti-human CD163 (Biolegend, CA), and FITC anti-human CD11b (Biolegend, CA) antibodies were added into the cells pellet and incubated for 45 min at room temperature in the dark. The cells pellets underwent two PBS washes following incubation. Finally, the cells were subsequently analyzed by flow cytometry (BD Accuri, C5). 1 × 10^4 cells were counted for each sample group using flow cytometry. All data are the results of at least three independent experiments carried out in triplicate. Data are presented as mean ± standard error of the mean (SEM) of samples. The untreated stained macrophage cells with anti-human CD80, FITC anti-human CD163, and FITC anti-human CD11b were compared with the results of treated cells to obtain from M0 polarization to M1 and M2 or both.
Figure 2 (a) Saponins without antigen treatment, (b) Saponins treated with antigen. THP-1 cells were treated with 15 ng/ml PMA and 3 µg/ml saponins and 1 HA titer of IBV D274 induced in the saponins with antigen group for 24 h incubation. The macrophage polarization was determined with flow cytometry. Each value represents the mean ± standard deviation of three independents measurements. (P < 0.05*, P < 0.01**, P < 0.001***).

[8] = tested on: HepG-2 human hepatocellular carcinoma cells; assay: MTT cytotoxicity on HepG-2; assay type: cell-based; details: Homo sapiens, HepG2, 48 h, mean ± standard deviation, n = 3, – = Not detected
Procedure: as §1, §2

[9] = tested on: MDA-MB-231 human breast cancer cells; assay: MTT cytotoxicity on MDA-MB-231; assay type: cell-based; details: Homo sapiens, MDA-MB-231, 48 h, mean ± standard deviation, n = 3, – = Not detected
Procedure: as §1, §2

[10] = with inactivated IBV D274 antigen (1 HA)

| SMILES | IC50 [1] [µM] | IC50 [2] [µM] | IC50 [3] [µM] | IC50 [4] [µM] | IC50 [5] [µM] | IC50 [6] [µM] | MFI of CD 11b (M0 marker) [7, 10] | MFI of CD80 (M1 marker) [7, 10] | MFI of CD 11b (M0 marker) ([7]; without antigen) | MFI of CD80 (M1 marker) ([7]; without antigen) | MFI of CD163 (M2 marker) ([7]; without antigen) | IC50 [8] [µM] | IC50 [9] [µM] | MFI of CD163 (M2 marker) [7, 10] | IC50, THP-1 originated-macrophage ([2]; 48 h) |
| --- | --- | --- | --- | --- | --- | --- | --- | --- | --- | --- | --- | --- | --- | --- | --- |
| C[C@@H]1O[C@@H](O[C@H]2[C@H](O[C@H]3CC[C@@]4(C)C(CC[C@]5(C)C4CC=C4C6CC(C)(C)CC[C@]6(C(=O)O)CC[C@]45C)[C@]3(C)CO)O[C@H](CO)[C@H](O)[C@@H]2O)[C@H](O)[C@H](O)[C@H]1O (stereo partly drawn) [Compound 1, 3-O-α-L-rhamopyranosyl-(1 → 2)-β-D-galactopyranosyl-hederagenin] | 48.1 ± 4.56 | 27.6 ± 0.52 | 8.59 ± 0.19 | > 64 | > 64 | > 64 | 31,644.21 ± 849.30 | 4062.43 ± 906.36 | 28,644.50 ± 849.33 | 4,536.00 ± 239.19 | 6,400.83 ± 196.02* | > 64 | 15.1 ± 1.02 |  |  |
| C[C@@H]1O[C@@H](O[C@H]2[C@H](O[C@H]3CC[C@@]4(C)C(CC[C@]5(C)C4CC=C4C6CC(C)(C)CC[C@]6(C(=O)O[C@@H]6O[C@H](CO[C@@H]7O[C@H](CO)[C@@H](O)[C@H](O)[C@H]7O)[C@@H](O)[C@H](O)[C@H]6O)CC[C@]45C)C3(C)C)O[C@H](CO)[C@H](O)[C@@H]2O)[C@H](O)[C@H](O)[C@H]1O (stereo partly drawn) [Compound 2, 3-O-α-L-rhamnopyranosyl-(1 → 2)-β-D-galactopyranosyl-oleanoic acid-28-O-β-D-glucopyranosyl-(1 → 6)-β-D-glucopyranosyl ester] | > 45.9 | > 45.9 | > 45.9 | > 45.9 | > 45.9 | > 45.9 | 33,053.20 ± 951.60 | 4516.00 ± 223.23 | 29,875.39 ± 3311.75 | 3,629.71 ± 142.80 | 6,206.45 ± 185.19 | > 45.9 | > 45.9 | 7441.00 ± 423.23 |  |
| C[C@@H]1O[C@@H](O[C@H]2[C@H](O[C@H]3CC[C@@]4(C)C(CC[C@]5(C)C4CC=C4C6CC(C)(C)CC[C@]6(C(=O)O)CC[C@]45C)C3(C)C)O[C@H](CO)[C@H](O)[C@@H]2O)[C@H](O)[C@H](O)[C@H]1O (stereo partly drawn) [Compound 2a, 3-O-α-L-rhamopyranosyl-(1 → 2)-β-D-galactopyranosyl oleanoic acid] | > 65.4 | 37.3 ± 8.17 | 20.8 ± 0.46 | > 65.4 | > 65.4 | > 65.4 | 28,297.32 ± 808.92 | 4727.00 ± 221.96 | 26,304.81 ± 2370.42 | 3,962.53 ± 246.09 |  | > 65.4 | 24.3 ± 2.65 | 7408.64 ± 224.16 |  |
| C[C@@H]1O[C@@H](O[C@H]2[C@H](O[C@H]3CC[C@@]4(C)C(CC[C@]5(C)C4CC=C4C6CC(C)(C)CC[C@]6(C(=O)O[C@@H]6O[C@H](CO[C@@H]7O[C@H](CO)[C@@H](O)[C@H](O)[C@H]7O)[C@@H](O)[C@H](O)[C@H]6O)CC[C@]45C)[C@]3(C)CO)OC[C@@H](O)[C@@H]2O)[C@H](O)[C@H](O)[C@H]1O (stereo partly drawn) [Compound 3, 3-O-α-L-rhamnopyranosyl-(1 → 2)-β-D-xylopyranosyl-hederagenin-28-O-β-D-glucopyranosyl-(1 → 6)-β-D-glucopyranosyl ester] | > 46.5 | > 46.5 | > 46.5 | > 46.5 | > 46.5 | > 46.5 | 29,545.10 ± 906.36 | 4564.51 ± 138.81 | 28,092.69 ± 1435.47 | 4,549.73 ± 913.74 | 6,655.82 ± 206.67* | > 46.5 | > 46.5 | 8303.34 ± 245.1** |  |
| C[C@@H]1O[C@@H](O[C@H]2[C@H](O[C@H]3CC[C@@]4(C)C(CC[C@]5(C)C4CC=C4C6CC(C)(C)CC[C@]6(C(=O)O)CC[C@]45C)[C@]3(C)CO)OC[C@@H](O)[C@@H]2O)[C@H](O)[C@H](O)[C@H]1O (stereo partly drawn) [Compound 3a, 3-O-α-L-rhamopyranosyl-(1 → 2)-β-D-xylopyranosyl hederagenin] | > 66.6 | > 66.6 | > 66.6 | > 66.6 | > 66.6 | > 66.6 | 29,092.45 ± 852.78 | 4911.00 ± 224.16 | 29,092.75 ± 2580.19 | 4,248.00 ± 137.13 | 6,408.00 ± 195.24* | > 66.6 | > 66.6 |  | did not have a cytotoxic effect |
| COc1cccc2c1C(=O)c1c(O)c3c(c(O)c1C2=O)C[C@@](O)(C(=O)CO)C[C@@H]3O[C@H]1C[C@H](N)[C@H](O)[C@H](C)O1 [Doxorubicin, doxorubicin, reference compound] | 23.95 ± 0.02 | 6.84 ± 0.18 | 40.01 ± 0.02 | 11.09 ± 0.02 | 4.23 ± 0.02 | 33.98 ± 0.02 |  |  |  |  |  | 36.85 ± 0.02 | 70 ± 0.02 |  |  |
